Results from paper PMC9259545, “Impact of poly-arginine peptides R18D and R18 on alteplase and tenecteplase thrombolysis in vitro, and neuroprotective stability to proteolysis” (Journal of Thrombosis and Thrombolysis, 2022).
No end group written: not given here.

Columns and labels:
[1] = human, in vivo, 0.5 mg/kg; cited from earlier work
Source text: (§1) A potential mechanism that could negatively influence the neuroprotective efficacy of a peptide (and protein) neurotherapeutic when co-administered with a thrombolytic agent in ischaemic stroke is its proteolytic stability. For example, a peptide could be degraded directly by the proteolytic action of tPA and TNK, or indirectly by plasmin following its activation by tPA/TNK.

whole blood halo clot = experiment: Halo assay dose response study of tPA and TNK; format: biochemical, human; conditions: 5 nM tPA or TNK, halo assay dose response study (Supplementary Fig. 1; assay performed without added plasma), N = 4
Method: We utilised a high throughput 96-well plate thrombolysis assay (“halo clot assay”) based on the procedure developed by Bonnard et al.. To reduce assay components the halo thrombus formation procedure was modified by replacing the original thrombotic mixture consisting of recombinant tissue factor and synthetic phospholipids reconstituted in 30 mM calcium, with thrombin, and reducing the pro-thrombotic volume (i.e., thrombin) from 5 to 3 µL and blood volume from 25 to 12 µL. […]
The thrombolysis assay involved adding 30 µL of Tris buffer (50 mM Tris–HCl, 100 mM NaCl, […] during thrombolysis 27.5%). […] Following the addition of tPA or TNK into the wells, clot lysis was monitored over a 1-h period at 37 °C using a plate reader (Cytation5, BioTek, USA) by measuring absorbance at 510 nm every 1 min immediately after orbital shaking (205 rpm for 5 s). […] At the 1-h time point, the percentage of thrombolysis (%T) in tPA or TNK treated samples (LTX) was calculated by transforming absorbance values based on the formula: % T = (LTX) − (L0%)/(L100%) − (L0%) × 100. In addition, during the 1-h period of clot lysis lag time and maximal activity (also known as maximum velocity or Vmax) of the thrombolysis reaction were calculated. The lag time is defined as the time interval between the first absorbance reading (time = 0) and the line of maximum slope of the thrombolysis reaction. […]

TNK [2] = biological target: T1, TNK (Homo sapiens, UniProt P00750, H332A/K331A/N152Q/R333A/R334A/T138N); experiment: Neuroprotective proteolytic stability after pre-incubation with TNK (glutamic acid excitotoxicity model, MTS); format: in vitro ADME; conditions: 1 or 2 h or overnight (22-24 h)
T1 construct: purchased Boehringer Ingelheim 50 mg vial
T1 sequence (P00750 36-562 T138N/N152Q/K331A/H332A/R333A/R334A): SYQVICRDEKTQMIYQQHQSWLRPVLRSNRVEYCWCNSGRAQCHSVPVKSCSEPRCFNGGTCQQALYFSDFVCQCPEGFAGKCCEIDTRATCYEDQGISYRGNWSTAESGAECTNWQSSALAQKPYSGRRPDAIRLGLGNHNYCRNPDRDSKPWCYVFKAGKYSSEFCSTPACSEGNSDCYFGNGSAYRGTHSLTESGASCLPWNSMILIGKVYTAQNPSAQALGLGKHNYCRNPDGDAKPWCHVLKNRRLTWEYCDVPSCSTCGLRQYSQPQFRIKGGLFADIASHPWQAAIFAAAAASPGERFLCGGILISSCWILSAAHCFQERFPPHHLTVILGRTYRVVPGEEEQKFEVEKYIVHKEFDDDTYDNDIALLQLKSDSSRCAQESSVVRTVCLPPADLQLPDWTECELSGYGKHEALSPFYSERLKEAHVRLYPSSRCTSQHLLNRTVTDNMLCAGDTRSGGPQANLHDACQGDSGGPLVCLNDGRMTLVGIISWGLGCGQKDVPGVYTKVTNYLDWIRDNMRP
Method: (§2) Neuronal cultures were maintained in CO2 incubator.
(§3) tPA (1000 µg/mL) or TNK (5000 µg/mL) resuspended in water (Baxter) were used to prepare 10 µg/mL (170 nM; note this is 34 times the concentration used in thrombolysis assay) stocks in MEM/2% B27 supplement (MEM/B27).
(§4) All data are presented as mean ± standard deviation (SD).

tPA [3] = biological target: T2, tPA (Homo sapiens, UniProt P00750); experiment: Halo clot thrombolysis assay, tPA thrombolysis of whole blood clots; format: biochemical; conditions: tPA 5 nM, 27.5% human plasma
T2 construct: purchased Boehringer Ingelheim, Germany 10 mg vial
T2 sequence (P00750 36-562): as the sequence (P00750 36-562 T138N/N152Q/K331A/H332A/R333A/R334A) above, with N103T, Q117N, A296K, A297H, A298R, A299R counted along it
Method: (§5) We utilised a high throughput 96-well plate thrombolysis assay (“halo clot assay”) based on the procedure developed by Bonnard et al.. To reduce assay components the halo thrombus formation procedure was modified by replacing the original thrombotic mixture consisting of recombinant tissue factor and synthetic phospholipids reconstituted in 30 mM calcium, with thrombin, and reducing the pro-thrombotic volume (i.e., thrombin) from 5 to 3 µL and blood volume from 25 to 12 µL. Another modification to simplify clot formation consisted of adding the thrombin (3 µL; 500 nM in saline) to one side of the well and 12 µL of blood to the opposite side of well, before using a heat stretched Pasteur pipette with sealed end to mix the two liquids together using 4 to 5 circular motions around the edge of the well (halo clot). The original methodology involved adding the 5 μL of the clotting mixture to the edge of the well, and then using a micropipette to slowly release the 25 μL of blood to the edge of the well while at the same time maintaining a circular motion. Plates were incubated in a humidified 37 °C incubator for 1 h before use in the thrombolysis assay.
(§6) The thrombolysis assay involved adding 30 µL of Tris buffer (50 mM Tris–HCl, 100 mM NaCl, pH 7.4) with or without peptide followed by 55 µL Tris buffer containing tPA or TNK (5 nM final concentration) and 50% human plasma (final plasma concentration during thrombolysis 27.5%). The final concentration of peptide during thrombolysis ranged from 0.25 to 16 µM (note: an intravenous dose of R18D at 350 nmol/kg, which is likely to be neuroprotective achieves a Cmax of 0.7–0.9 µM in healthy male and female rats; unpublished observation). […] Following the addition of tPA or TNK into the wells, clot lysis was monitored over a 1-h period at 37 °C using a plate reader (Cytation5, BioTek, USA) by measuring absorbance at 510 nm every 1 min immediately after orbital shaking (205 rpm for 5 s). Controls consisted of wells with no thrombin (100% clot lysis; L100%) and wells with no tPA or TNK (0% clot lysis; L0%). At the 1-h time point, the percentage of thrombolysis (%T) in tPA or TNK treated samples (LTX) was calculated by transforming absorbance values based on the formula: % T = (LTX) − (L0%)/(L100%) − (L0%) × 100. In addition, during the 1-h period of clot lysis lag time and maximal activity (also known as maximum velocity or Vmax) of the thrombolysis reaction were calculated. The lag time is defined as the time interval between the first absorbance reading (time = 0) and the line of maximum slope of the thrombolysis reaction. The maximal activity is calculated from the maximum slope over the time course of the assay and reflects the capacity of an enzyme to catalyse a reaction (i.e., thrombolysis), with higher values representing higher catalytic activity (i.e., tPA/TNK induced plasmin thrombolysis).
(§7) For each thrombolysis assay, replicates for control wells (L0% and L100%) and tPA or TNK only treated wells consisted of n = 4–8. Replicates for tPA or TNK and peptide treated wells consisted of n = 4. For data analysis and graphical representations of the results, data from three independent thrombolytic assays were pooled. Studies consisted of R18D, R18 and NA-1 examined at the 0.5, 1, 2, 4, 8 or 16 µM concentrations performed concurrently on the same 96-well plate, in respective order. In addition, since R18D is known to be resistant to plasmin degradation and appeared to have the most impact on tPA or TNK thrombolysis, a separate set of three independent assays were performed for this peptide alone at concentrations of 0.25, 0.5, 1, 2, 4, 8 or 16 µM. Furthermore, the second dose study with R18D provided the opportunity to include a lower concentration (0.25 µM) of the peptide and to provide comparative data when only one peptide was examined in the thrombolysis assay per 96-well plate as opposed to examining the three peptides concurrently on the same plate. […]

tPA [4] = biological target: T2, tPA; experiment: Neuroprotective proteolytic stability after pre-incubation with tPA (glutamic acid excitotoxicity model, MTS); format: in vitro ADME; conditions: 1 or 2 h or overnight (22-24 h)
Method: as §2, §3, §4

plasmin = conditions: cited from earlier work
Source text: Given the potential future application of the R18D, R18 and NA-1 peptides as ischaemic stroke neurotherapeutics, it is important to establish if they interfere with current and future standard of care treatments, namely alteplase (tPA; recombinant tissue plasminogen activator) and tenecteplase (TNK; a modified version of tPA) thrombolysis, which are routinely administered prior to thrombectomy. […] NA-1 is also degraded by plasmin [8]. Together, these findings confirm that peptides synthesised with D-enantiomer amino acids such as R18D, unlike peptides synthesised with L-enantiomer amino acids are highly resistant to proteolytic degradation and are likely to retain their neuroprotective efficacy ...

tPA or TNK = format: biochemical, human
Method: as §5, §6
For each thrombolysis assay, replicates for control wells (L0% and L100%) and tPA or TNK only treated wells consisted of n = 4–8. Replicates for tPA or TNK and peptide treated wells consisted of n = 4. For data analysis and graphical representations of the results, data from three independent thrombolytic assays were pooled. Studies consisted of R18D, R18 and NA-1 examined at the 0.5, 1, 2, 4, 8 or 16 µM concentrations performed concurrently on the same 96-well plate, in respective order. […]

TNK [5] = biological target: T1, TNK; experiment: Halo clot thrombolysis assay, TNK thrombolysis of whole blood clots; format: biochemical; conditions: concurrent study, TNK 5 nM, 27.5% human plasma
Method: as §5, §6, §7

trypsin (TrypLE Express) = trypsin (TrypLE Express) (Fusarium oxysporum, UniProt P35049); conditions: inferred from neuroprotection; peptide 2 µM, 50% TrypLE Express, 1 or 2 h or overnight (22-24 h)
Chain of trypsin (TrypLE Express) (P35049 25-248): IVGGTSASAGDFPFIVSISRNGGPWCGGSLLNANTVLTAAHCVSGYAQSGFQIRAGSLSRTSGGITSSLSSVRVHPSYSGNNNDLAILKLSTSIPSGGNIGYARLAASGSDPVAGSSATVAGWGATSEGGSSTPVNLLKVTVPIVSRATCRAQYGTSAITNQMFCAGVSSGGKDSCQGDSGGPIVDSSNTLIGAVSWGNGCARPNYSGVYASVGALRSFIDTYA
Method: Rat primary cortical cultures were established from embryonic day 18–19 Sprague–Dawley rats (Animal Resources Centre, WA, Australia). Briefly, cortical tissue was dissociated in 2 mL Hanks balanced salt solution (HBBS; Life Technologies, Australia) supplemented with 1.3 mM L-cysteine, 10 U/mL papain (Sigma-Aldrich, Australia) and 50 U/mL DNase (Sigma-Aldrich) by trituration with a fire-polished pipette. Dissociated neurons were transferred to a 15-mL tube containing 13 mL of cold Dulbecco’s modified Eagle’s medium (DMEM; Life Technologies)/10% horse serum (Life Technologies) and centrifuged for 4 min at 300×g. Neurons were gently resuspended in 1.5 mL of cold Neurobasal (NB; Life Technologies)/2% B27 supplement (B27; Life Technologies) and the neuronal cell concentration adjusted to 50,000 neurons/70 μL and 70 μL inoculated into each well of a 96-well microtiter plate (Nunc, USA) pre-treated wells. Pre-treated wells were coated with 50 μL of poly-D-lysine (50 μg/mL; 70–150 K; Sigma-Aldrich) for 2–3 h at room temperature before being replaced with 50 μL of NB/B27, 4% fetal bovine serum (Life Technologies), 1% horse serum, 62.5 μM glutamic acid, 25 μM 2-mercaptoethanol, 30 μg/mL penicillin and 50 μg/mL streptomycin and placed in a CO2 incubator (5% CO2, 95% air balance, 98% humidity, 37 °C) prior to seeding with neurons. Neuronal cultures were maintained in CO2 incubator. On day in vitro four, 60 µL fresh NB/B27 containing the mitotic inhibitor cytosine arabinofuranoside (final concentration 0.15 μM; Sigma-Aldrich) was added and neuronal culture were used on day in vitro 11 to 13.
As an alternative to trypsin, TrypLE Express (Thermo Fischer Scientific, Australia) a synthetic serine protease with trypsin-like activity was used. […] Hereafter, TrypLE Express is referred to as trypsin.
Trypsin solution was added to an equal volume of MEM/2% B27 (T:MEM/B27). […] Following the incubation, 50 µL of the T:MEM/B27 or HBSS:MEM/B27 peptide solution was used to treat neuronal culture as described below for the glutamic acid excitotoxicity model. […]

tPA [6] = biological target: T2, tPA; conditions: cited from earlier work
Source text: as §1

[7] = in the order; 8 (NA-1), unpublished data (R18D); cited from earlier work
Source text: It is important to mention that the results obtained in this study are likely to overestimate any negative effects of R18D, R18 and NA-1 on tPA/TNK lag time and thrombolysis compared with what would occur clinically for several reasons. Firstly, positively charged peptides administered directly into the circulation would have a larger pool of negatively charged plasma proteins such as albumin to bind, and thus reduce any inhibitory electrostatic effects of the peptides on lag time and thrombolysis. In addition, the in vitro thrombolysis assay used in this study was performed in 27.5% plasma wh ...

Substance	Serum concentration [1]	Clot lysis after 1-h (whole blood halo clot)	Resistance to degradation by TNK (TNK [2]; inferred from retained neuroprotection, peptide 2 µM, TNK 170 nM)	Neuroprotective efficacy after incubation with TNK (TNK [2]; peptide 2 µM in MEM/B27 with TNK 10 µg/mL (170 nM), 37 °C CO2 incubator, then rat cortical neurons, glutamic acid 100 µM 5 min, MTS viability at 20-24 h, N = 4-8)	Effect on tPA lag time vs tPA control (tPA [3]; concurrent study, 0.5-16 µM peptide)	Increase in tPA thrombolysis maximal activity (tPA [3]; peptide 16 µM, concurrent study, 37 °C)	Effect on percentage tPA thrombolysis at 1 h vs tPA control (tPA [3]; three peptides concurrently on the same plate, 0.5-16 µM peptide, Tris pH 7.4, 37 °C, 1 h, absorbance 510 nm, three independent assays pooled, n = 4, Dunnett's test)	Resistance to degradation by tPA (tPA [4]; inferred from retained neuroprotection, peptide 2 µM, tPA 170 nM)	Neuroprotective efficacy after incubation with tPA (tPA [4]; peptide 2 µM in MEM/B27 with tPA 10 µg/mL (170 nM), 37 °C CO2 incubator, then rat cortical neurons, glutamic acid 100 µM 5 min, MTS viability at 20-24 h, N = 4-8)	Neuroprotective properties in the glutamic acid excitotoxicity injury model when pre-incubated with plasmin (plasmin)	Sensitivity to proteolytic degradation by plasmin (plasmin)	Increase in lag time (time to the commencement of thrombolysis) (tPA or TNK; range over peptide concentrations 0.25-16 µM and both thrombolytics, 1-h assay)	Effect on maximal activity of the thrombolysis reaction (tPA or TNK; summary in abstract)	Effect on TNK thrombolysis maximal activity vs TNK control (TNK [5]; 0.5-16 µM peptide)	Effect on percentage TNK thrombolysis at 1 h vs TNK control (TNK [5]; 0.5-16 µM peptide, 37 °C, 1 h)	Increase in TNK lag time (TNK [5]; peptide 8 µM, 37 °C)	Resistance to degradation by trypsin (trypsin (TrypLE Express))	Degradation when incubated with tPA (tPA [6])	In vivo peak plasma concentration [7]	Plasma half-life [7]
tPA: recombinant tissue plasminogen activator	≤ 30 nM	approximately 90%																		
RRRRRRRRRRRRRRRRRR [R18]			resistant to degradation	a similar and a high level of neuroprotective efficacy	did not significantly increase tPA lag time	48.36%	did not significantly inhibit thrombolysis	resistant to degradation	a similar and a high level of neuroprotective efficacy	not	sensitive	0 to 5.53 min	appeared to increase the maximal activity	did not significantly impact TNK thrombolysis maximal activity	did not significantly inhibit TNK thrombolysis	5.53 min	only R18D is resistant			
YGRKKRRQRRRKLSSIESDV [NA-1, reference compound]											sensitive							is not degraded	1 to 5 µM	5 to 15 min
